{"source": "ChEMBL document CHEMBL1125591", "about": "“Synthesis and antidopaminergic activity of some 3-(aminomethyl)tetralones as analogues of butyrophenone” (J Med Chem, 1991)", "key": {"Rattus norvegicus [1]": {"species_on_record": "Rattus norvegicus", "assay": "Compound was evaluated for the pA2 values against Norepinephrine (NE)-induced contraction of isolated rat vas deferens", "assay_type": "functional", "settings": "read-out: pA2 (converted)"}, "D(1A) dopamine receptor": {"biological_target": "D(1A) dopamine receptor (Rattus norvegicus, UniProt P18901)", "sequence (P18901 whole entry)": "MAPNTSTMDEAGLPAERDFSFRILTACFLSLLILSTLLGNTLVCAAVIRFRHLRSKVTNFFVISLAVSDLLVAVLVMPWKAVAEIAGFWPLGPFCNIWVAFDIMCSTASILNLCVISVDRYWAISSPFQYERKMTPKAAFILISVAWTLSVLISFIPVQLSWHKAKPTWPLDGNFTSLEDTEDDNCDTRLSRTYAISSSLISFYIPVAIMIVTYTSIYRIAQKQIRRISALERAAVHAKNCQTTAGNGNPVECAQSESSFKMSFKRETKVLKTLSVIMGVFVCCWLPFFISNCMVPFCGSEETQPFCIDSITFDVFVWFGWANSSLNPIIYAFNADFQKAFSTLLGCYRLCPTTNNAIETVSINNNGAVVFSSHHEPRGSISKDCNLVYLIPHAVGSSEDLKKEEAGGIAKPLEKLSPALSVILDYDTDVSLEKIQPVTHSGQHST", "assay": "Compound was evaluated for its affinity (pKi) to inhibit [3H]SCH-23390 binding to the dopamine receptor D1"}, "Rattus norvegicus [2]": {"species_on_record": "Rattus norvegicus", "assay": "Compound was evaluated for the pA2 values against Dopamine (DA)-induced contraction of isolated rat vas deferens.", "assay_type": "functional, organism-based", "settings": "read-out: pA2 (converted)"}, "Mus musculus": {"species_on_record": "Mus musculus", "assay": "Compound was evaluated for the effective dose that causes lethality in aggregated mice (group toxicity antagonism)", "assay_type": "organism-based", "settings": "in vivo"}, "D(2) dopamine receptor": {"biological_target": "D(2) dopamine receptor (Rattus norvegicus, UniProt P61169)", "sequence (P61169 whole entry)": "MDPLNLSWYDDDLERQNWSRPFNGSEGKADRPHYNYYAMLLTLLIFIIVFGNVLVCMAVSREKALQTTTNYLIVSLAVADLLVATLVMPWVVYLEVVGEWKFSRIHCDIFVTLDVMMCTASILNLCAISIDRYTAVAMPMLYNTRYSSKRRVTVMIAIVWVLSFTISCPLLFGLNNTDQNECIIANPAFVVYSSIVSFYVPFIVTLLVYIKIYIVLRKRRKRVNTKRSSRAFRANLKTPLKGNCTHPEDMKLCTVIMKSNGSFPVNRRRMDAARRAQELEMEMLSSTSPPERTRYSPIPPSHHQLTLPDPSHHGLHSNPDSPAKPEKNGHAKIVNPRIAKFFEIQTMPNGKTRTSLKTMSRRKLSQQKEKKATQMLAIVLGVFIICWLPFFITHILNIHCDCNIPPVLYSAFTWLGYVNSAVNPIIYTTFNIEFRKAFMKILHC", "assay": "Compound was evaluated for its affinity (pKi) to inhibit [3H]spiperone binding to the dopamine receptor D2"}}, "data": [{"smiles": "O=C1CC(CN2CCC(C(=O)c3ccc(F)cc3)CC2)Cc2ccccc21", "note": "(centres undefined)", "values": [{"measurement": "Kb", "setting": "Rattus norvegicus [1]", "value": 83.2, "unit": "nM"}, {"measurement": "Ki", "setting": "D(1A) dopamine receptor", "value": 324, "unit": "nM"}, {"measurement": "Kb", "setting": "Rattus norvegicus [2]", "value": 35.5, "unit": "nM"}, {"measurement": "ED50", "setting": "Mus musculus", "value": 0.055, "unit": "mg/kg"}]}, {"smiles": "COc1ccccc1N1CCN(CC2CC(=O)c3ccccc3C2)CC1", "note": "(centres undefined)", "values": [{"measurement": "Kb", "setting": "Rattus norvegicus [1]", "value": 174, "unit": "nM"}, {"measurement": "Ki", "setting": "D(1A) dopamine receptor", "value": 1350, "unit": "nM"}, {"measurement": "Kb", "setting": "Rattus norvegicus [2]", "value": 66.1, "unit": "nM"}, {"measurement": "ED50", "setting": "Mus musculus", "value": 0.349, "unit": "mg/kg"}]}, {"smiles": "O=C(CCCN1CCN(CC2CC(=O)c3ccccc3C2)CC1)c1ccc(F)cc1", "note": "(centres undefined)", "values": [{"measurement": "Kb", "setting": "Rattus norvegicus [1]", "value": 178, "unit": "nM"}, {"measurement": "Ki", "setting": "D(1A) dopamine receptor", "value": 380, "unit": "nM"}, {"measurement": "Kb", "setting": "Rattus norvegicus [2]", "value": 53.7, "unit": "nM"}]}, {"smiles": "O=C(CCCN1CCN(CC2CC(=O)c3ccc(F)cc3C2)CC1)c1ccc(F)cc1", "note": "(centres undefined)", "values": [{"measurement": "Ki", "setting": "D(1A) dopamine receptor", "value": 912, "unit": "nM"}, {"measurement": "Ki", "setting": "D(2) dopamine receptor", "value": 77.6, "unit": "nM"}, {"measurement": "ED50", "setting": "Mus musculus", "value": 0.053, "unit": "mg/kg"}]}, {"smiles": "O=C1CC(CN2CCC(O)(c3ccccc3)CC2)Cc2ccccc21", "note": "(centres undefined)", "values": [{"measurement": "Ki", "setting": "D(1A) dopamine receptor", "value": 741, "unit": "nM"}, {"measurement": "Ki", "setting": "D(2) dopamine receptor", "value": 74.1, "unit": "nM"}]}, {"smiles": "O=C(CCCN1CCC(O)(c2ccc(Cl)cc2)CC1)c1ccc(F)cc1", "note": "[HALOPERIDOL]", "values": [{"measurement": "Kb", "setting": "Rattus norvegicus [1]", "value": 102, "unit": "nM"}, {"measurement": "Kb", "setting": "Rattus norvegicus [2]", "value": 39.8, "unit": "nM"}, {"measurement": "ED50", "setting": "Mus musculus", "value": 0.02, "unit": "mg/kg"}]}]}
